Laboratory results: the supplement of paper PMC10307832

Legend:
Test in all cases: relative viability (nuclei count vs DMSO), 5 days (fraction); higher = more cells survive
NCI-H650 = test system: NCI-H650
How it was run: (§1)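 Medians of duplicate plates are given as relative viability. That measure is the nuclei count in treated wells divided by the count in vehicle wells. Counts were taken on 4× images of lung cancer cell lines in 1536-well plates, 5 days after pin-tool dosing the day after seeding with one drug alone or a fixed anchor-drug dose plus five library-drug doses (not always all listed) in √10 steps.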

NCI-H23 = test system: NCI-H23
How it was run: as §1

NCI-H1650 = test system: NCI-H1650
How it was run: as §1

LCLC-103H = test system: LCLC-103H
How it was run: as §1

NCI-H727 = test system: NCI-H727
How it was run: as §1

PC-3 [JPC-3] = test system: PC-3 [JPC-3]
How it was run: as §1

LU99A = test system: LU99A
How it was run: as §1

NCI-H1563 = test system: NCI-H1563
How it was run: as §1

HCC-44 = test system: HCC-44
How it was run: as §1

NCI-H460 = test system: NCI-H460
How it was run: as §1

201T = test system: 201T
How it was run: as §1

H3255 = test system: H3255
How it was run: as §1

NCI-H2347 = test system: NCI-H2347
How it was run: as §1

PC-14 = test system: PC-14
How it was run: as §1

A-427 = test system: A-427
How it was run: as §1

SW 1573 = test system: SW 1573
How it was run: as §1

NCI-H838 = test system: NCI-H838
How it was run: as §1

COR-L23 = test system: COR-L23
How it was run: as §1

LCLC-97TM1 = test system: LCLC-97TM1
How it was run: as §1

C=C1C(=O)O[C@@H](CCCCCCCC)[C@@H]1C(=O)O [C-75] + CC(C)C[C@H](NC(=O)[C@H](Cc1ccccc1)NC(=O)c1cnccn1)B(O)O [Bortezomib] (partner 0.002 µM)
relative viability (NCI-H650; first compound 0.08 µM): 0.828 | relative viability (NCI-H650; first compound 0.253 µM): 0.691 | relative viability (NCI-H650; first compound 0.8 µM): 0.547 | relative viability (NCI-H650; first compound 2.53 µM): 0.745 | relative viability (NCI-H650; first compound 8 µM): 0.586 | relative viability (NCI-H23; first compound 0.08 µM): 0.953 | relative viability (NCI-H23; first compound 0.253 µM): 1.07 | relative viability (NCI-H23; first compound 0.8 µM): 0.962 | relative viability (NCI-H23; first compound 2.53 µM): 0.865 | relative viability (NCI-H23; first compound 8 µM): 0.696 | relative viability (NCI-H1650; first compound 0.08 µM): 0.223 | relative viability (NCI-H1650; first compound 0.253 µM): 0.212 | relative viability (NCI-H1650; first compound 0.8 µM): 0.198 | relative viability (NCI-H1650; first compound 2.53 µM): 0.158 | relative viability (NCI-H1650; first compound 8 µM): 0.187 | relative viability (LCLC-103H; first compound 0.08 µM): 1.23 | relative viability (LCLC-103H; first compound 0.253 µM): 0.907 | relative viability (LCLC-103H; first compound 0.8 µM): 1.06 | relative viability (LCLC-103H; first compound 2.53 µM): 0.811 | relative viability (LCLC-103H; first compound 8 µM): 1.18 | relative viability (NCI-H727; first compound 0.08 µM): 0.773 | relative viability (NCI-H727; first compound 0.253 µM): 1.32 | relative viability (NCI-H727; first compound 0.8 µM): 0.614 | relative viability (NCI-H727; first compound 2.53 µM): 0.582 | relative viability (NCI-H727; first compound 8 µM): 0.99 | relative viability (PC-3 [JPC-3]; first compound 0.08 µM): 0.826 | relative viability (PC-3 [JPC-3]; first compound 0.253 µM): 0.839 | relative viability (PC-3 [JPC-3]; first compound 0.8 µM): 0.826 | relative viability (PC-3 [JPC-3]; first compound 2.53 µM): 0.581 | relative viability (PC-3 [JPC-3]; first compound 8 µM): 0.836 | relative viability (LU99A; first compound 0.08 µM): 1.1 | relative viability (LU99A; first compound 0.253 µM): 1.03 | relative viability (LU99A; first compound 0.8 µM): 1.08 | relative viability (LU99A; first compound 2.53 µM): 0.933 | relative viability (LU99A; first compound 8 µM): 0.885 | relative viability (NCI-H1563; first compound 0.08 µM): 0.855 | relative viability (NCI-H1563; first compound 0.253 µM): 1.1 | relative viability (NCI-H1563; first compound 0.8 µM): 0.963 | relative viability (NCI-H1563; first compound 2.53 µM): 0.763 | relative viability (NCI-H1563; first compound 8 µM): 0.906 | relative viability (HCC-44; first compound 0.08 µM): 0.885 | relative viability (HCC-44; first compound 0.253 µM): 0.863 | relative viability (HCC-44; first compound 0.8 µM): 0.857 | relative viability (HCC-44; first compound 2.53 µM): 0.714 | relative viability (HCC-44; first compound 8 µM): 0.89 | relative viability (NCI-H460; first compound 0.08 µM): 1.05 | relative viability (NCI-H460; first compound 0.253 µM): 1.22 | relative viability (NCI-H460; first compound 0.8 µM): 0.982 | relative viability (NCI-H460; first compound 8 µM): 0.945 | relative viability (201T; first compound 0.08 µM): 1.07 | relative viability (201T; first compound 0.253 µM): 1.24 | relative viability (201T; first compound 0.8 µM): 1.08 | relative viability (201T; first compound 2.53 µM): 1.15 | relative viability (201T; first compound 8 µM): 1.08 | relative viability (H3255; first compound 0.08 µM): 0.841 | relative viability (H3255; first compound 0.253 µM): 0.811 | relative viability (H3255; first compound 0.8 µM): 0.715 | relative viability (H3255; first compound 2.53 µM): 0.799 | relative viability (H3255; first compound 8 µM): 0.8 | relative viability (NCI-H2347; first compound 0.08 µM): 1.06 | relative viability (NCI-H2347; first compound 0.253 µM): 1.09 | relative viability (NCI-H2347; first compound 2.53 µM): 0.851 | relative viability (NCI-H2347; first compound 8 µM): 0.741 | relative viability (PC-14; first compound 0.08 µM): 0.853 | relative viability (PC-14; first compound 0.253 µM): 0.969 | relative viability (PC-14; first compound 0.8 µM): 0.94 | relative viability (PC-14; first compound 2.53 µM): 0.726 | relative viability (PC-14; first compound 8 µM): 0.965 | relative viability (A-427; first compound 0.08 µM): 1.01 | relative viability (A-427; first compound 0.253 µM): 0.988 | relative viability (A-427; first compound 0.8 µM): 1.02 | relative viability (A-427; first compound 2.53 µM): 0.78 | relative viability (A-427; first compound 8 µM): 1.12 | relative viability (SW 1573; first compound 0.08 µM): 1.05 | relative viability (SW 1573; first compound 0.253 µM): 0.949 | relative viability (SW 1573; first compound 0.8 µM): 1.03 | relative viability (SW 1573; first compound 2.53 µM): 1.07 | relative viability (SW 1573; first compound 8 µM): 0.912 | relative viability (NCI-H838; first compound 0.08 µM): 0.66 | relative viability (NCI-H838; first compound 0.253 µM): 0.588 | relative viability (NCI-H838; first compound 0.8 µM): 0.8 | relative viability (NCI-H838; first compound 2.53 µM): 0.656 | relative viability (NCI-H838; first compound 8 µM): 0.684 | relative viability (COR-L23; first compound 0.08 µM): 0.953 | relative viability (COR-L23; first compound 0.253 µM): 1.05 | relative viability (COR-L23; first compound 0.8 µM): 0.946 | relative viability (COR-L23; first compound 2.53 µM): 0.698 | relative viability (COR-L23; first compound 8 µM): 0.818 | relative viability (LCLC-97TM1; first compound 0.08 µM): 0.636 | relative viability (LCLC-97TM1; first compound 0.253 µM): 0.595 | relative viability (LCLC-97TM1; first compound 0.8 µM): 0.222 | relative viability (LCLC-97TM1; first compound 2.53 µM): 0.477 | relative viability (LCLC-97TM1; first compound 8 µM): 0.218
